Source: PMC12207590, “Substrate Specificity of the Organic Cation Transporters MATE1 and MATE2K and Functional Overlap with OCT1 and OCT2” (Journal of Medicinal Chemistry, 2025)
Read-outs that look alike come from different tables or passages of the source. Where a SMILES comes first, the peptide text is derived from it.

Tests used:
hCMEC [1] = assay: TS DPH hCMEC (Table S2); type: cell-based, human; design: scale not given here
MATE1 [2] = molecular target: T1, MATE1 (Homo sapiens, UniProt Q96FL8); assay: Uptake ratio in MATE1-overexpressing HEK293 cells vs empty vector (2.5 μM, 1 min, HPLC-MS/MS); type: cell-based
T1 sequence (Q96FL8 1-570): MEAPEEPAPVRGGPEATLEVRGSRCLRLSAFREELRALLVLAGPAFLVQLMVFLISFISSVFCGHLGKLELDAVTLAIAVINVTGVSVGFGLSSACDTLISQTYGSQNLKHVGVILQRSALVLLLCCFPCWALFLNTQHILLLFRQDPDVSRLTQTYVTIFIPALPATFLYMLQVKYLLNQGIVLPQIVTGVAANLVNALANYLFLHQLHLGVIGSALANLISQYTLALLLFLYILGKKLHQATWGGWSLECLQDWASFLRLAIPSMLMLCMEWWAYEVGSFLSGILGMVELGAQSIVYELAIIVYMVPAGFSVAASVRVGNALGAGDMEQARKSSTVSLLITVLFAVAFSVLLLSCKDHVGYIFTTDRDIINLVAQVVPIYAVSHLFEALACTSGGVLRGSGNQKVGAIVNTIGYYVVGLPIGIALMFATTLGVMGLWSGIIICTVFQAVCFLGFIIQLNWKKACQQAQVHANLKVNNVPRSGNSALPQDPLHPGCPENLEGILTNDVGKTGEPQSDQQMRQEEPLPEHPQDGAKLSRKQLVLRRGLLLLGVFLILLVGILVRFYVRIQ

MATE2K [3] = molecular target: T2, MATE2K (Homo sapiens, UniProt Q86VL8); assay: Uptake ratio in MATE2K-overexpressing HEK293 cells vs empty vector (2.5 μM, 1 min, HPLC-MS/MS); type: cell-based
hCMEC [4] = assay: TS MDAI hCMEC (Table S2); type: cell-based, human; design: scale not given here
MATE2K [5] = molecular target: T2, MATE2K; assay: Concentration-dependent uptake (Michaelis-Menten) via MATE2K in HEK293 cells; conditions: HEK293, 1 min, net uptake; for Km: read-out: MATE2K KM
MATE1 [6] = molecular target: T1, MATE1; assay: Concentration-dependent uptake (Michaelis-Menten) via MATE1 in HEK293 cells; conditions: HEK293, 1 min, net uptake; for Km: read-out: MATE1 KM
[7] = fold uptake over empty vector, 2.5 μM, 1 min
[8] = mean ratio of uptake in MATE1-overexpressing HEK293 cells vs empty vector, 2.5 μM, 1 min
[9] = mean ratio of uptake in MATE2K-overexpressing HEK293 cells vs empty vector, 2.5 μM, 1 min

T2 sequence (Q86VL8 1-566 isoform Q86VL8-3): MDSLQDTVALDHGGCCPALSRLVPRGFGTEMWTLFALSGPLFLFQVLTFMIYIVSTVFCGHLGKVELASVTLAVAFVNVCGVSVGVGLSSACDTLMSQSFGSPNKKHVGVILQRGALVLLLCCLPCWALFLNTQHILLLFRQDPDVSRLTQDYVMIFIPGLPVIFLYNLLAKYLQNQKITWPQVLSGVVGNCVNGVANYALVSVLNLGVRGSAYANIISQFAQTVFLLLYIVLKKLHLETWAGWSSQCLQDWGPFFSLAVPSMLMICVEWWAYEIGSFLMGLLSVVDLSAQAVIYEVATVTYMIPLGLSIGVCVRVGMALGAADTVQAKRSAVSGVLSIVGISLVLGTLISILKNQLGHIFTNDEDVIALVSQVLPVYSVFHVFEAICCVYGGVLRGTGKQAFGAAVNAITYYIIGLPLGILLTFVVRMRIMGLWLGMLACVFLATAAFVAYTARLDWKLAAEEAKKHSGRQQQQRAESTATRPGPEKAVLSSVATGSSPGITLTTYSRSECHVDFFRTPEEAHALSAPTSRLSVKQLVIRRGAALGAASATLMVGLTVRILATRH

SMILES: CC12CC3CC(C)(C1)CC(N)(C3)C2 [Memantine]
- TS DPH hCMEC (hCMEC [1]; Table S2): 0.24
- MATE1 ratio in this study (MATE1 [2]; Table S1, 2.5 μM, 1 min): 1.03
- MATE1 ratio (MATE1 [2]; [7]): 1.03
- MATE2K ratio in this study (MATE2K [3]; Table S1, 2.5 μM, 1 min): 1.18
- MATE2K ratio (MATE2K [3]; [7]): 1.18
- TS MDAI hCMEC (hCMEC [4]; Table S2): 0.14

SMILES: CC(C)NCC(O)COc1cccc2[nH]ccc12 (centres unmarked) [Pindolol]
- TS DPH hCMEC (hCMEC [1]; Table S2): 0.59
- MATE1 ratio (MATE1 [2]; [7]): 1.84
- MATE2K ratio (MATE2K [3]; [7]): 1.18
- TS MDAI hCMEC (hCMEC [4]; Table S2): 0.83

SMILES: CNCCc1ccccn1 [Betahistine]
- TS DPH hCMEC (hCMEC [1]; Table S2): 0.73
- MATE1 ratio (MATE1 [2]; [7]): 1.90
- MATE1 (uptake ratio) (MATE1 [2]; [8]): 1.9
- MATE2K ratio (MATE2K [3]; [7]): 1.19
- MATE2 (uptake ratio) (MATE2K [3]; [9]): 1.19
- TS MDAI hCMEC (hCMEC [4]; Table S2): 0.86

SMILES: C=CCN1C[C@H](C(=O)N(CCCN(C)C)C(=O)NCC)C[C@@H]2c3cccc4[nH]cc(c34)C[C@H]21 [Cabergoline]
- TS DPH hCMEC (hCMEC [1]; Table S2): 0.38
- MATE1 ratio (MATE1 [2]; [7]): 1.20
- MATE1 (uptake ratio) (MATE1 [2]; [8]): 1.2
- MATE2K ratio (MATE2K [3]; [7]): 1.13
- MATE2 (uptake ratio) (MATE2K [3]; [9]): 1.13
- TS MDAI hCMEC (hCMEC [4]; Table S2): 0.44

SMILES: C[N+](C)(C)CCO [Choline]
- TS DPH hCMEC (hCMEC [1]; Table S2): 1.04
- MATE1 ratio (MATE1 [2]; [7]): 1.13
- MATE1 (uptake ratio) (MATE1 [2]; [8]): 1.13
- MATE2K ratio (MATE2K [3]; [7]): 1.09
- MATE2 (uptake ratio) (MATE2K [3]; [9]): 1.09
- TS MDAI hCMEC (hCMEC [4]; Table S2): 1.27

SMILES: Nc1nc(CC(=O)Nc2ccc(CCNC[C@H](O)c3ccccc3)cc2)cs1 [Mirabegron]
- TS DPH hCMEC (hCMEC [1]; Table S2): 0.90
- MATE1 ratio (MATE1 [2]; [7]): 8.19
- MATE2K ratio (MATE2K [3]; [7]): 4.76
- TS MDAI hCMEC (hCMEC [4]; Table S2): 0.75

SMILES: CC(C)(C)NCC(O)c1cc(Cl)c(N)c(Cl)c1 (centres unmarked) [Clenbuterol]
- TS DPH hCMEC (hCMEC [1]): 0.36
- MATE1 (uptake ratio) (MATE1 [2]): 1.11
- MATE1 ratio (MATE1 [2]): 1.11
- MATE2 (uptake ratio) (MATE2K [3]): 1.18
- MATE2K ratio (MATE2K [3]): 1.18
- TS MDAI hCMEC (hCMEC [4]): 0.07

SMILES: CNCC[C@@H](Oc1ccccc1C)c1ccccc1 [Atomoxetine]
- TS DPH hCMEC (hCMEC [1]; Table S2): 0.23
- MATE1 ratio (MATE1 [2]; [7]): 1.12
- MATE1 (uptake ratio) (MATE1 [2]; [8]): 1.12
- MATE2K ratio (MATE2K [3]; [7]): 1.18
- MATE2 (uptake ratio) (MATE2K [3]; [9]): 1.18
- TS MDAI hCMEC (hCMEC [4]; Table S2): 0.25

SMILES: CC(=O)OC(C)C[N+](C)(C)C (centres unmarked) [Methacholine]
- MATE2K Vmax (MATE2K [5]): 1240 pmol × mg protein^–1 × min^–1
- Km (MATE2K [5]): 1400 µM
- MATE1 ratio (MATE1 [2]; [7]): 21.58
- MATE2K ratio (MATE2K [3]; [7]): 2.57
- MATE1 Vmax (MATE1 [6]): 17,843 pmol × mg protein^–1 × min^–1
- Km (MATE1 [6]): 1990 µM

SMILES: OCCOCCN1CCN(C2=Nc3ccccc3Sc3ccccc32)CC1 [Quetiapine]
- TS DPH hCMEC (hCMEC [1]; Table S2): 0.49
- MATE1 ratio (MATE1 [2]; [7]): 1.10
- MATE1 (MATE1 [2]; uptake ratio MATE1-overexpressing vs empty-vector HEK293 cells, 2.5 μM, 1 min, mean): 1.1
- MATE2K ratio (MATE2K [3]; [7]): 1.28
- MATE2 (MATE2K [3]; uptake ratio MATE2K-overexpressing vs empty-vector HEK293 cells, 2.5 μM, 1 min, mean): 1.28
- TS MDAI hCMEC (hCMEC [4]; Table S2): 0.45

SMILES: COC(=O)[C@H](Cc1ccccc1)NC(=O)[C@@H](N)CC(=O)O [Aspartame] (HELM PEPTIDE1{D.F.[CO[*:1]]}$$$$V2.0)
- TS DPH hCMEC (hCMEC [1]; Table S2): 1.77
- MATE1 ratio (MATE1 [2]; [7]): 1.26
- MATE1 (uptake ratio) (MATE1 [2]; [8]): 1.26
- MATE2K ratio (MATE2K [3]; [7]): 1.07
- MATE2 (uptake ratio) (MATE2K [3]; [9]): 1.07
- TS MDAI hCMEC (hCMEC [4]; Table S2): 1.65

SMILES: [H]/N=C(/N)N/C(=N/[H])NCCc1ccccc1 [Phenformin]
- MATE2K Vmax (MATE2K [5]): 1361 pmol × mg protein^–1 × min^–1
- Km (MATE2K [5]): 73.1 µM
- MATE1 ratio (MATE1 [2]; [7]): 19.54
- MATE2K ratio (MATE2K [3]; [7]): 3.01
- MATE1 Vmax (MATE1 [6]): 8451 pmol × mg protein^–1 × min^–1
- Km (MATE1 [6]): 101 µM

SMILES: CNC[C@H](O)c1ccc(O)c(O)c1 [Epinephrine]
- MATE2K Vmax (MATE2K [5]): 2968 pmol × mg protein^–1 × min^–1
- Km (MATE2K [5]): 1510 µM
- MATE1 Vmax (MATE1 [6]): 22,773 pmol × mg protein^–1 × min^–1
- Km (MATE1 [6]): 1080 µM

SMILES: CC[C@@H](C(N)=O)N1CCCC1=O [Levetiracetam]
- TS DPH hCMEC (hCMEC [1]; Table S2): 1.17
- MATE1 ratio (MATE1 [2]; [7]): 1.19
- MATE2K ratio (MATE2K [3]; [7]): 1.28
- TS MDAI hCMEC (hCMEC [4]; Table S2): 1.19

SMILES: CCCNC(C)C(=O)Nc1c(C)csc1C(=O)OC (centres unmarked) [Articaine]
- TS DPH hCMEC (hCMEC [1]; Table S2): 0.53
- MATE1 ratio (MATE1 [2]; [7]): 1.26
- MATE1 (uptake ratio) (MATE1 [2]; [8]): 1.26
- MATE2K ratio (MATE2K [3]; [7]): 1.59
- MATE2 (uptake ratio) (MATE2K [3]; [9]): 1.59
- TS MDAI hCMEC (hCMEC [4]; Table S2): 0.47

SMILES: CC(C)(C)NCC(O)c1ccc(O)c(CO)n1 (centres unmarked) [Pirbuterol]
- TS DPH hCMEC (hCMEC [1]; Table S2): 0.95
- MATE1 ratio (MATE1 [2]; [7]): 12.66
- MATE2K ratio (MATE2K [3]; [7]): 6.00
- TS MDAI hCMEC (hCMEC [4]; Table S2): 1.31
